Assay results taken from patent US8207193B2 (priority 2006, dated 2012).
pIC50: −log10 of the molar value.

Experiments:
[1] = Measurement of plasma protein binding by equilibrium dialysis; conditions: 37° C., 5 μM compound
[2] = target: human muscarinic acetylcholine M3 receptor (M3-ACh) (Homo sapiens, UniProt P20309); assay: biochemical; format: binding
[3] = pIC50 of comparative compounds containing a cyclohexyl (C6) ring in place of cycloheptyl (C7)
[4] = pIC50 of comparative compounds containing a cyclooctyl (C8) ring in place of cycloheptyl (C7)

Chain of human muscarinic acetylcholine M3 receptor (M3-ACh) (P20309 whole entry): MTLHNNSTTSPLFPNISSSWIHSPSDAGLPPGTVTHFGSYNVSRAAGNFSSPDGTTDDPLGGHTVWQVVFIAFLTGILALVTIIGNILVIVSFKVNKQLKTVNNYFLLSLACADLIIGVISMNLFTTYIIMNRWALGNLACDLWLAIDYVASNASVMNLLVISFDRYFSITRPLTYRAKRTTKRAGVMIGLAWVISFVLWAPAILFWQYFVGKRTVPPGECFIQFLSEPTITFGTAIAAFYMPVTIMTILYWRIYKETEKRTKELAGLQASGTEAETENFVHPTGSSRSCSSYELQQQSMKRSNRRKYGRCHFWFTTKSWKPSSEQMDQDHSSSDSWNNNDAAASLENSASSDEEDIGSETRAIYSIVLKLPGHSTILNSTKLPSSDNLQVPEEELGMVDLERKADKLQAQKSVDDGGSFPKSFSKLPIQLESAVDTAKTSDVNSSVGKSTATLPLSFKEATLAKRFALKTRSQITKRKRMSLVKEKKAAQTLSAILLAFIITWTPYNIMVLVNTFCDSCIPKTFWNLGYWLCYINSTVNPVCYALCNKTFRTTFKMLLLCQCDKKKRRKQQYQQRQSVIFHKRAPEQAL

SMILES	pIC50 ([2]; M3 binding IC50)	further results
O=C(C[N+]12CCC(CC1)[C@@H](OC(=O)C1(c3ccccc3)CCCCCC1)C2)Nc1cnccn1.[Br-] [Example 16, (3R)-1-[2-Oxo-2-(pyrazin-2-ylamino)ethyl]-3-{[(1-phenylcycloheptyl)carbonyl]oxy}-1-azoniabicyclo[2.2.2]octane Bromide]	> 8.70	human plasma protein binding [1]: 94 % bound
O=C(O)C[N+]12CCC(CC1)[C@@H](OC(=O)C1(c3ccccc3)CCCCCC1)C2 [Example 34, (3R)-1-(Carboxymethyl)-3-{[(1-phenylcycloheptyl)carbonyl]oxy}-1-azoniabicyclo[2.2.2]octane Bromide]	< 8.00	–
O=C(O[C@H]1C[N+]2(CCc3cccc(Cl)c3)CCC1CC2)C1(c2ccccc2)CCCCCC1 [Example 35, (3R)-1-[2-(3-Chlorophenyl)ethyl]-3-{[(1-phenylcycloheptyl)carbonyl]oxy}-1-azoniabicyclo[2.2.2]octane bromide]	> 8.70	–
NC(=O)C[N+]12CCC(CC1)[C@@H](OC(=O)C1(c3ccccc3)CCCCCC1)C2 [Example 36, (3R)-1-(2-Amino-2-oxoethyl)-3-{[(1-phenylcycloheptyl)carbonyl]oxy}-1-azoniabicyclo[2.2.2]octane Bromide]	> 8.70	–
O=C(C[N+]12CCC(CC1)[C@@H](OC(=O)C1(c3ccccc3)CCCCCC1)C2)NCCCc1ccccc1 [Example 37, (3R)-1-{2-Oxo-2-[(3-phenylpropyl)amino]ethyl}-3-{[(1-phenylcycloheptyl)carbonyl]oxy}-1-azoniabicyclo[2.2.2]octane Bromide]	8.00 to 8.70	–
COc1ccc(CC[N+]23CCC(CC2)[C@@H](OC(=O)C2(c4ccccc4)CCCCCC2)C3)cc1Cl [Example 38, (3R)-1-[2-(3-Chloro-4-methoxyphenyl)ethyl]-3-{[(1-phenylcycloheptyl)carbonyl]oxy}-1-azoniabicyclo[2.2.2]octane Bromide]	> 8.70	–
Cc1cc(NC(=O)C[N+]23CCC(CC2)[C@@H](OC(=O)C2(c4ccccc4)CCCCCC2)C3)on1 [Example 39, (3R)-1-{2-[(3-Methylisoxazol-5-yl)amino]-2-oxoethyl}-3-{[(1-phenylcycloheptyl)carbonyl]oxy}-1-azoniabicyclo[2.2.2]octane Bromide]	> 8.70	–
O=C(C[N+]12CCC(CC1)[C@@H](OC(=O)C1(c3ccccc3)CCCC1)C2)Nc1cnccn1 [compound 3, (3R)-1-[2-Oxo-2-(pyrazin-2-ylamino)ethyl]-3-{[(1-phenylcyclopentyl)carbonyl]oxy}-1-azoniabicyclo[2.2.2]octane Bromide, reference compound]	–	pIC50 ([2]; pIC50 of comparative compounds containing a cyclopentyl (C5) ring in place of cycloheptyl (C7)): 9.50
C[N+]12CCC(CC1)[C@@H](OC(=O)C1(c3ccccc3)CCCCC1)C2 [compound 5, (3R)-1-Methyl-3-{[(1-phenylcyclohexyl)carbonyl]oxy}-1-azoniabicyclo[2.2.2]octane Iodide, reference compound]	–	pIC50 [2, 3]: 7.30
O=C(C[N+]12CCC(CC1)[C@@H](OC(=O)C1(c3ccccc3)CCCCC1)C2)Nc1cnccn1 [compound 6, (3R)-1-[2-Oxo-2-(pyrazin-2-ylamino)ethyl]-3-{[(1-phenylcyclohexyl)carbonyl]oxy}-1-azoniabicyclo[2.2.2]octane Bromide, reference compound]	–	pIC50 [2, 3]: 9.70
C[N+]12CCC(CC1)[C@@H](OC(=O)C1(c3ccccc3)CCCCCCC1)C2 [compound 8, (3R)-1-Methyl-3-{[(1-phenylcyclooctyl)carbonyl]oxy}-1-azoniabicyclo[2.2.2]octane Iodide, reference compound]	–	pIC50 [2, 4]: 7.40
O=C(C[N+]12CCC(CC1)[C@@H](OC(=O)C1(c3ccccc3)CCCCCCC1)C2)Nc1cnccn1 [compound 9, (3R)-1-[2-Oxo-2-(pyrazin-2-ylamino)ethyl]-3-{[(1-phenylcyclooctyl)carbonyl]oxy}-1-azoniabicyclo[2.2.2]octane Bromide, reference compound]	–	pIC50 [2, 4]: 9.50
